Laboratory results from ChEMBL document CHEMBL3046235, “In vitro biological activities of new heterocyclic chalcone derivatives” (Med Chem Res, 2013).
Converted amounts (≈) assume the structure as drawn. The source made the active and inactive calls. No cut-off for these calls is given here.

test system: Goatpox virus; assay: Antiviral activity against Goatpox virus infected African green monkey Vero cells assessed as reduction of virus titers at MNTC dose incubated for 24 hr measured after 6 days by TCID50 assay; assay type: functional, organism-based; conditions: not given

| SMILES | inhibition |
| --- | --- |
| Cc1cc(C(=O)/C=C/c2ccc(-c3ccccc3)cc2)c(C)o1 | inactive |
| CCc1ccc(/C=C/C(=O)c2cc(C)oc2C)o1 | inactive |
| O=C(/C=C/c1ccc[nH]1)c1ccsc1 | inactive |
| Cc1cc(C(=O)/C=C/c2c[nH]c3ccccc23)c(C)o1 | inactive |

test system: Salmonella typhi; assay: Antimicrobial activity against Salmonella enterica subsp. enterica serovar Typhi isolated from infected patient assessed as diameter of growth inhibition zone at 40 ug/ml by disk diffusion method; assay type: functional; conditions: read-out: DIZ

| SMILES | zone of inhibition at 40 µg/mL [mm] |
| --- | --- |
| O=C(O)c1cn(C2CC2)c2cc(N3CCNCC3)c(F)cc2c1=O [CIPROFLOXACIN] | 23 |
| Cc1cc(C(=O)/C=C/c2ccc(-c3ccccc3)cc2)c(C)o1 | 22 |
| CCc1ccc(/C=C/C(=O)c2cc(C)oc2C)o1 | 23 |
| O=C(/C=C/c1ccc[nH]1)c1ccsc1 | 23 |
| Cc1cc(C(=O)/C=C/c2c[nH]c3ccccc23)c(C)o1 | 22 |

test system: HepG2; assay: Growth inhibition of Homo sapiens (human) HepG2 cells up to 75 ug/ml after 48 hr by MTT assay; assay type: functional, cell-based; conditions: not given

| SMILES | growth inhibition (GI) |
| --- | --- |
| Cc1cc(C(=O)/C=C/c2ccc(-c3ccccc3)cc2)c(C)o1 | Active |

test system: Aspergillus niger; assay: Antimicrobial activity against Aspergillus niger assessed as growth inhibition by disk diffusion method; assay type: functional; conditions: not given

| SMILES | MIC [µg/mL] |
| --- | --- |
| Cc1cc(C(=O)/C=C/c2ccc(-c3ccccc3)cc2)c(C)o1 | 20 (≈ 66.1 µM) |
| CCc1ccc(/C=C/C(=O)c2cc(C)oc2C)o1 | 40 (≈ 164 µM) |
| O=C(/C=C/c1ccc[nH]1)c1ccsc1 | 30 (≈ 148 µM) |
| Cc1cc(C(=O)/C=C/c2c[nH]c3ccccc23)c(C)o1 | 40 (≈ 151 µM) |

test system: Bacillus subtilis; assay: Antimicrobial activity against Bacillus subtilis isolated from infected patient assessed as diameter of growth inhibition zone at 40 ug/ml by disk diffusion method; assay type: functional; conditions: read-out: DIZ

| SMILES | zone of inhibition at 40 µg/mL [mm] |
| --- | --- |
| O=C(O)c1cn(C2CC2)c2cc(N3CCNCC3)c(F)cc2c1=O [CIPROFLOXACIN] | 23 |
| Cc1cc(C(=O)/C=C/c2ccc(-c3ccccc3)cc2)c(C)o1 | 24 |
| CCc1ccc(/C=C/C(=O)c2cc(C)oc2C)o1 | 24 |
| O=C(/C=C/c1ccc[nH]1)c1ccsc1 | 23 |
| Cc1cc(C(=O)/C=C/c2c[nH]c3ccccc23)c(C)o1 | 22 |

test system: Escherichia coli; assay: Antimicrobial activity against Escherichia coli isolated from infected patient assessed as diameter of growth inhibition zone at 40 ug/ml by disk diffusion method; assay type: functional; conditions: read-out: DIZ

| SMILES | zone of inhibition at 40 µg/mL [mm] |
| --- | --- |
| Cc1cc(C(=O)/C=C/c2ccc(-c3ccccc3)cc2)c(C)o1 | 23 |
| CCc1ccc(/C=C/C(=O)c2cc(C)oc2C)o1 | 27 |
| O=C(/C=C/c1ccc[nH]1)c1ccsc1 | 24 |
| Cc1cc(C(=O)/C=C/c2c[nH]c3ccccc23)c(C)o1 | 21 |

test system: Camelpox virus; assay: Antiviral activity against Camelpox virus infected African green monkey Vero cells assessed as inhibition of viral replication at MNTC dose incubated for 24 hr measured after 3 days; assay type: functional; conditions: not given

| SMILES | inhibition (INH) [%] |
| --- | --- |
| Cc1cc(C(=O)/C=C/c2ccc(-c3ccccc3)cc2)c(C)o1 | 0 |
| CCc1ccc(/C=C/C(=O)c2cc(C)oc2C)o1 | 0 |
| O=C(/C=C/c1ccc[nH]1)c1ccsc1 | 0 |
| Cc1cc(C(=O)/C=C/c2c[nH]c3ccccc23)c(C)o1 | 0 |

test system: Camelpox virus; assay: Antiviral activity against Camelpox virus infected African green monkey Vero cells assessed as reduction of virus titers at MNTC dose incubated for 24 hr measured after 3 days by TCID50 assay; assay type: functional, organism-based; conditions: not given

| SMILES | inhibition |
| --- | --- |
| Cc1cc(C(=O)/C=C/c2ccc(-c3ccccc3)cc2)c(C)o1 | inactive |
| CCc1ccc(/C=C/C(=O)c2cc(C)oc2C)o1 | inactive |
| O=C(/C=C/c1ccc[nH]1)c1ccsc1 | inactive |
| Cc1cc(C(=O)/C=C/c2c[nH]c3ccccc23)c(C)o1 | inactive |

test system: Aspergillus niger; assay: Antimicrobial activity against Aspergillus niger assessed as diameter of growth inhibition zone at 40 ug/ml by disk diffusion method; assay type: functional; conditions: read-out: DIZ

| SMILES | zone of inhibition at 40 µg/mL [mm] |
| --- | --- |
| OC(Cn1cncn1)(Cn1cncn1)c1ccc(F)cc1F [FLUCONAZOLE] | 25 |
| Cc1cc(C(=O)/C=C/c2ccc(-c3ccccc3)cc2)c(C)o1 | 23 |
| CCc1ccc(/C=C/C(=O)c2cc(C)oc2C)o1 | 22 |
| O=C(/C=C/c1ccc[nH]1)c1ccsc1 | 23 |
| Cc1cc(C(=O)/C=C/c2c[nH]c3ccccc23)c(C)o1 | 11 |

test system: Buffalopox virus; assay: Antiviral activity against Buffalopox virus virus infected African green monkey Vero cells assessed as reduction of virus titers at MNTC dose incubated for 24 hr measured after 4 days by TCID50 assay; assay type: functional, organism-based; conditions: not given

| SMILES | inhibition |
| --- | --- |
| Cc1cc(C(=O)/C=C/c2ccc(-c3ccccc3)cc2)c(C)o1 | inactive |
| CCc1ccc(/C=C/C(=O)c2cc(C)oc2C)o1 | inactive |
| O=C(/C=C/c1ccc[nH]1)c1ccsc1 | inactive |
| Cc1cc(C(=O)/C=C/c2c[nH]c3ccccc23)c(C)o1 | inactive |

test system: HepG2; assay: Cytotoxicity against Homo sapiens (human) HepG2 cells assessed as inhibition of cell viability by trypan blue exclusion method; assay type: functional; conditions: read-out: LC50 (the source's name)

| SMILES | CC50 [µg/mL] |
| --- | --- |
| Cc1cc(C(=O)/C=C/c2ccc(-c3ccccc3)cc2)c(C)o1 | 92 (≈ 304 µM) |
| CCc1ccc(/C=C/C(=O)c2cc(C)oc2C)o1 | 69 (≈ 282 µM) |
| O=C(/C=C/c1ccc[nH]1)c1ccsc1 | 21 (≈ 103 µM) |
| Cc1cc(C(=O)/C=C/c2c[nH]c3ccccc23)c(C)o1 | 81 (≈ 305 µM) |

test system: Staphylococcus aureus; assay: Antimicrobial activity against Staphylococcus aureus isolated from infected patient assessed as diameter of growth inhibition zone at 40 ug/ml by disk diffusion method; assay type: functional; conditions: read-out: DIZ

| SMILES | zone of inhibition at 40 µg/mL [mm] |
| --- | --- |
| O=C(O)c1cn(C2CC2)c2cc(N3CCNCC3)c(F)cc2c1=O [CIPROFLOXACIN] | 24 |
| Cc1cc(C(=O)/C=C/c2ccc(-c3ccccc3)cc2)c(C)o1 | 16 |
| CCc1ccc(/C=C/C(=O)c2cc(C)oc2C)o1 | 18 |
| O=C(/C=C/c1ccc[nH]1)c1ccsc1 | 16 |
| Cc1cc(C(=O)/C=C/c2c[nH]c3ccccc23)c(C)o1 | 22 |

test system: Goatpox virus; assay: Antiviral activity against Goatpox virus infected African green monkey Vero cells assessed as inhibition of viral replication at MNTC dose incubated for 24 hr measured after 6 days; assay type: functional; conditions: not given

| SMILES | inhibition (INH) [%] |
| --- | --- |
| Cc1cc(C(=O)/C=C/c2ccc(-c3ccccc3)cc2)c(C)o1 | 0 |
| CCc1ccc(/C=C/C(=O)c2cc(C)oc2C)o1 | 0 |
| O=C(/C=C/c1ccc[nH]1)c1ccsc1 | 0 |
| Cc1cc(C(=O)/C=C/c2c[nH]c3ccccc23)c(C)o1 | 0 |

test system: Vero; assay: Cytotoxicity against Chlorocebus aethiops (African green monkey) Vero cells assessed as change in morphological changes after 4 days by inverted microscopic analysis; assay type: cell-based; conditions: chlorocebus sabaeus, 96 h

| SMILES | MNTD [µg] |
| --- | --- |
| Cc1cc(C(=O)/C=C/c2ccc(-c3ccccc3)cc2)c(C)o1 | 4.68 |
| CCc1ccc(/C=C/C(=O)c2cc(C)oc2C)o1 | 2.08 |
| O=C(/C=C/c1ccc[nH]1)c1ccsc1 | 4.68 |
| Cc1cc(C(=O)/C=C/c2c[nH]c3ccccc23)c(C)o1 | 75 |

test system: HepG2; assay: Growth inhibition of Homo sapiens (human) HepG2 cells at 100 ug/ml after 48 hr by MTT assay; assay type: functional; conditions: HepG2, 48 h, read-out: GI

| SMILES | inhibition of growth at 100 µg/mL [%] |
| --- | --- |
| Cc1cc(C(=O)/C=C/c2ccc(-c3ccccc3)cc2)c(C)o1 | 67 |

test system: Bacillus subtilis; assay: Antimicrobial activity against Bacillus subtilis isolated from infected patient assessed as growth inhibition by disk diffusion method; assay type: functional; conditions: not given

| SMILES | MIC [µg/mL] |
| --- | --- |
| Cc1cc(C(=O)/C=C/c2ccc(-c3ccccc3)cc2)c(C)o1 | 30 (≈ 99.2 µM) |
| CCc1ccc(/C=C/C(=O)c2cc(C)oc2C)o1 | 30 (≈ 123 µM) |
| O=C(/C=C/c1ccc[nH]1)c1ccsc1 | 30 (≈ 148 µM) |
| Cc1cc(C(=O)/C=C/c2c[nH]c3ccccc23)c(C)o1 | 40 (≈ 151 µM) |

test system: Candida albicans; assay: Antimicrobial activity against Candida albicans assessed as diameter of growth inhibition zone at 40 ug/ml by disk diffusion method; assay type: functional; conditions: read-out: DIZ

| SMILES | zone of inhibition at 40 µg/mL [mm] |
| --- | --- |
| OC(Cn1cncn1)(Cn1cncn1)c1ccc(F)cc1F [FLUCONAZOLE] | 24 |
| Cc1cc(C(=O)/C=C/c2ccc(-c3ccccc3)cc2)c(C)o1 | 23 |
| CCc1ccc(/C=C/C(=O)c2cc(C)oc2C)o1 | 21 |
| O=C(/C=C/c1ccc[nH]1)c1ccsc1 | 23 |
| Cc1cc(C(=O)/C=C/c2c[nH]c3ccccc23)c(C)o1 | 19 |

test system: Staphylococcus aureus; assay: Antimicrobial activity against Staphylococcus aureus isolated from infected patient assessed as growth inhibition by disk diffusion method; assay type: functional; conditions: not given

| SMILES | MIC [µg/mL] |
| --- | --- |
| Cc1cc(C(=O)/C=C/c2ccc(-c3ccccc3)cc2)c(C)o1 | 20 (≈ 66.1 µM) |
| CCc1ccc(/C=C/C(=O)c2cc(C)oc2C)o1 | 40 (≈ 164 µM) |
| O=C(/C=C/c1ccc[nH]1)c1ccsc1 | 40 (≈ 197 µM) |
| Cc1cc(C(=O)/C=C/c2c[nH]c3ccccc23)c(C)o1 | 20 (≈ 75.4 µM) |

test system: Candida albicans; assay: Antimicrobial activity against Candida albicans assessed as growth inhibition by disk diffusion method; assay type: functional; conditions: not given

| SMILES | MIC [µg/mL] |
| --- | --- |
| Cc1cc(C(=O)/C=C/c2ccc(-c3ccccc3)cc2)c(C)o1 | 20 (≈ 66.1 µM) |
| CCc1ccc(/C=C/C(=O)c2cc(C)oc2C)o1 | 40 (≈ 164 µM) |
| O=C(/C=C/c1ccc[nH]1)c1ccsc1 | 40 (≈ 197 µM) |
| Cc1cc(C(=O)/C=C/c2c[nH]c3ccccc23)c(C)o1 | 40 (≈ 151 µM) |

test system: Escherichia coli; assay: Antimicrobial activity against Escherichia coli isolated from infected patient assessed as growth inhibition by disk diffusion method; assay type: functional; conditions: not given

| SMILES | MIC [µg/mL] |
| --- | --- |
| Cc1cc(C(=O)/C=C/c2ccc(-c3ccccc3)cc2)c(C)o1 | 20 (≈ 66.1 µM) |
| CCc1ccc(/C=C/C(=O)c2cc(C)oc2C)o1 | 40 (≈ 164 µM) |
| O=C(/C=C/c1ccc[nH]1)c1ccsc1 | 40 (≈ 197 µM) |
| Cc1cc(C(=O)/C=C/c2c[nH]c3ccccc23)c(C)o1 | 40 (≈ 151 µM) |

test system: Buffalopox virus; assay: Antiviral activity against Buffalopox virus virus infected African green monkey Vero cells assessed as inhibition of viral replication at MNTC dose incubated for 24 hr measured after 4 days; assay type: functional; conditions: not given

| SMILES | inhibition (INH) [%] |
| --- | --- |
| Cc1cc(C(=O)/C=C/c2ccc(-c3ccccc3)cc2)c(C)o1 | 0 |
| CCc1ccc(/C=C/C(=O)c2cc(C)oc2C)o1 | 0 |
| O=C(/C=C/c1ccc[nH]1)c1ccsc1 | 0 |
| Cc1cc(C(=O)/C=C/c2c[nH]c3ccccc23)c(C)o1 | 0 |

test system: Salmonella typhi; assay: Antimicrobial activity against Salmonella enterica subsp. enterica serovar Typhi isolated from infected patient assessed as growth inhibition by disk diffusion method; assay type: functional; conditions: not given

| SMILES | MIC [µg/mL] |
| --- | --- |
| Cc1cc(C(=O)/C=C/c2ccc(-c3ccccc3)cc2)c(C)o1 | 30 (≈ 99.2 µM) |
| CCc1ccc(/C=C/C(=O)c2cc(C)oc2C)o1 | 40 (≈ 164 µM) |
| O=C(/C=C/c1ccc[nH]1)c1ccsc1 | 40 (≈ 197 µM) |
| Cc1cc(C(=O)/C=C/c2c[nH]c3ccccc23)c(C)o1 | 30 (≈ 113 µM) |

test system: Radical scavenging activity; assay: Antioxidant activity assessed as DPPH radical scavenging activity at 15 ug/ml after 30 min by spectrophotometric analysis; assay type: functional; conditions: not given

| SMILES | Activity [%] |
| --- | --- |
| Cc1cc(C(=O)/C=C/c2ccc(-c3ccccc3)cc2)c(C)o1 | 31 |
| CCc1ccc(/C=C/C(=O)c2cc(C)oc2C)o1 | 31 |
| O=C(/C=C/c1ccc[nH]1)c1ccsc1 | 31 |
| Cc1cc(C(=O)/C=C/c2c[nH]c3ccccc23)c(C)o1 | 31 |
